Measurements as given in PMC8198038, “In Vitro Evaluation of Antiproliferative Properties of Novel Organotin(IV) Carboxylate Compounds with Propanoic Acid Derivatives on a Panel of Human Cancer Cell Lines” (Molecules, 2021).

Columns and labels:
[1] = system: PC-3, HT-29, MCF-7 and HepG2 tumour cell lines; assay: MTT and CV assays, panel of four tumour cell lines; type: cell-based, human; details: applied concentrations up to 100 µM, 48 h
Procedure: The in vitro anticancer activity of ligand precursors, HL1–HL3 and its organotin(IV) compounds was tested in a panel of four tumour cell lines: PC3 (prostate cancer cells), HT-29 (colon cancer cells), MCF-7 (breast cancer cells), and HepG2 (hepatic cancer cells), as well as on normal NIH3T3 cells (mouse embryonic fibroblast) using MTT and CV assays after 48 h of incubation.
The cell proliferations of ligand precursors and organotin(IV) compounds were evaluated with the aid of MTT (3-(4,5-dimethylthiazol-2-yl)-2,5-12 diphenyltetrazolium bromide) and CV (crystal violet) assays toward prostate (PC-3), colon (HT-29), breast (MCF-7) and hepatic (HepG2) cancer cell lines, and normal mouse embryonic fibroblast cells (NIH 3T3). The cells were cultivated in T75 flasks containing 10 mL of complete medium and kept at 37 °C and 5% CO2 […]. The nutrient medium was RPMI-1640 (PAA Laboratories) supplemented with 10% foetal bovine serum, L-glutamine, and penicillin/streptomycin (Sigma). Afterward, 5.000 cells of PC-3 and MCF-7 and 1.500 cells of HT-29 and HepG2 were transferred into 96 well-plates and used for MTT and CV assays. For microscopy investigations as well as FACS measurements (except for ROS/RNS measurements), MCF-7 cells were seeded overnight in 6-well plates (150,000 cells/well) in […] of complete medium. […] BD FACS Aria III was used for flow cytometry experiments and results were analysed using BD FACSDiva software (BD Biosciences, Heidelberg, Germany) and Cyflogic (V 1.2.1, CyFlo Ltd., Turku, Finland). A fluorescence microscope Invitrogen EVOS FL 2 Auto 2 Cell Imaging System was used for visualization of the cells as well as for detection of fluorescence in the cells.
Ligands HL1‒HL3, organotin(IV) compounds, and cisplatin were investigated in 9 different concentrations (100, 50, 10, 5, 1, 0.5, 0.1, 0.05, 0.01 μM). […] The treated cells were incubated for 48 h at 37 °C under 5% CO2 and the viability of the cells was determined using MTT and CV assays according to the literature procedure. […]

[2] = system: MCF-7 (breast cancer) cells; assay: CV (crystal violet) assay, MCF-7 cells; type: cell-based, human; details: read-out: IC50 (mean ± SD), MCF-7, CV
Procedure: (§1) The cell proliferations of ligand precursors and organotin(IV) compounds were evaluated with the aid of MTT (3-(4,5-dimethylthiazol-2-yl)-2,5-12 diphenyltetrazolium bromide) and CV (crystal violet) assays toward prostate (PC-3), colon (HT-29), breast (MCF-7) and hepatic (HepG2) cancer cell lines, and normal mouse embryonic fibroblast cells (NIH 3T3). The cells were cultivated in T75 flasks containing 10 mL of complete medium and kept at 37 °C and 5% CO2 […]. The nutrient medium was RPMI-1640 (PAA Laboratories) supplemented with 10% foetal bovine serum, L-glutamine, and penicillin/streptomycin (Sigma). Afterward, 5.000 cells of PC-3 and MCF-7 and 1.500 cells of HT-29 and HepG2 were transferred into 96 well-plates and used for MTT and CV assays. For microscopy investigations as well as FACS measurements (except for ROS/RNS measurements), MCF-7 cells were seeded overnight in 6-well plates (150,000 cells/well) in […] of complete medium. […] In all assays, control cells were untreated MCF-7 cells incubated for the same time period as treated cells and treated with appropriate reagents in various assays. BD FACS Aria III was used for flow cytometry experiments and results were analysed using BD FACSDiva software (BD Biosciences, Heidelberg, Germany) and Cyflogic (V 1.2.1, CyFlo Ltd., Turku, Finland). A fluorescence microscope Invitrogen EVOS FL 2 Auto 2 Cell Imaging System was used for visualization of the cells as well as for detection of fluorescence in the cells.
(§2) Ligands HL1‒HL3, organotin(IV) compounds, and cisplatin were investigated in 9 different concentrations (100, 50, 10, 5, 1, 0.5, 0.1, 0.05, 0.01 μM). Using the complete medium, each stock solution of the test compounds (20 mM in DMSO) was diluted to obtain the working solution. The final concentration of DMSO never overstepped 0.5%, which is non-toxic to the cells. Three technical replicates were performed for each concentration. The treated cells were incubated for 48 h at 37 °C under 5% CO2 and the viability of the cells was determined using MTT and CV assays according to the literature procedure. The IC50 values, defined as 50% inhibitory concentration, were calculated with a four-parameter logistic function and presented in a mean. All experiments were performed in triplicate.

[3] = system: HepG2 (hepatocellular cancer) cells; assay: MTT assay, HepG2 cells; type: cell-based, human; details: read-out: IC50 (mean ± SD), HepG2, MTT
Procedure: as §1, §2

[4] = system: HepG2 (hepatocellular cancer) cells; assay: CV (crystal violet) assay, HepG2 cells; type: cell-based, human; details: read-out: IC50 (mean ± SD), HepG2, CV
Procedure: as §1, §2

[5] = system: PC-3 (human prostate cancer) cells; assay: MTT assay, PC-3 cells; type: cell-based; details: read-out: IC50 (mean ± SD), PC-3, MTT
Procedure: as §1, §2

[6] = system: NIH3T3 (normal mouse embryonic fibroblast) cells; assay: MTT assay, NIH3T3 cells; type: cell-based; details: read-out: IC50 (mean ± SD), NIH3T3, MTT
Procedure: as §1, §2

[7] = system: HT-29 (human colorectal adenocarcinoma) cells; assay: MTT assay, HT-29 cells; type: cell-based; details: read-out: IC50 (mean ± SD), HT-29, MTT
Procedure: as §1, §2

[8] = system: HT-29 (human colorectal adenocarcinoma) cells; assay: CV (crystal violet) assay, HT-29 cells; type: cell-based; details: read-out: IC50 (mean ± SD), HT-29, CV
Procedure: as §1, §2

[9] = system: PC-3 (human prostate cancer) cells; assay: CV (crystal violet) assay, PC-3 cells; type: cell-based; details: read-out: IC50 (mean ± SD), PC-3, CV
Procedure: as §1, §2

[10] = system: MCF-7 (breast cancer) cells; assay: MTT assay, MCF-7 cells; type: cell-based, human; details: for IC50: read-out: IC50 (mean ± SD), MCF-7, MTT
Procedure: as §1, §2

[11] = system: NIH3T3 (normal mouse embryonic fibroblast) cells; assay: CV (crystal violet) assay, NIH3T3 cells; type: cell-based; details: read-out: IC50 (mean ± SD), NIH3T3, CV
Procedure: as §1, §2

[12] = Homo sapiens, MCF7, CV assay, 48 h incubation
[13] = Homo sapiens, HepG2, MTT assay, 48 h incubation
[14] = Homo sapiens, HepG2, CV assay, 48 h incubation
[15] = Homo sapiens, PC-3, MTT assay, 48 h incubation
[16] = Mus musculus, NIH3T3, MTT assay, 48 h incubation, normal cells
[17] = Homo sapiens, HT-29, MTT assay, 48 h incubation
[18] = Homo sapiens, HT-29, CV assay, 48 h incubation
[19] = Homo sapiens, PC-3, CV assay, 48 h incubation
[20] = Homo sapiens, MCF7, MTT assay, 48 h incubation
[21] = Mus musculus, NIH3T3, CV assay, 48 h incubation, normal cells
[22] = MTT assay, 48 h incubation, normal cells
[23] = CV assay, 48 h incubation, normal cells

Row | Compound | influence on cell proliferation [1] | IC50 [2, 12] | IC50 [3, 13] | IC50 [4, 14] | IC50 [5, 15] | IC50 [6, 16] | IC50 [7, 17] | IC50 [8, 18] | IC50 [9, 19] | IC50 [10, 20] | IC50 [11, 21] | IC50 ([2]; CV assay, 48 h incubation) | IC50 ([3]; MTT assay, 48 h incubation) | IC50 ([4]; CV assay, 48 h incubation) | IC50 ([5]; MTT assay, 48 h incubation) | IC50 [6, 22] | IC50 ([7]; MTT assay, 48 h incubation) | IC50 ([8]; CV assay, 48 h incubation) | IC50 ([9]; CV assay, 48 h incubation) | IC50 ([10]; MTT assay, 48 h incubation) | also measured
1 | O=C(O)CCc1nc(-c2ccccc2)c(-c2ccccc2)o1 [HL1, 3-(4,5-diphenyloxazol-2-yl)propanoic acid, reference compound] | did not affect cell proliferation in any cancer cell line tested | – | – | – | – | – | – | – | – | – | – | – | – | – | – | – | – | – | – | – | IC50 ([2]; Homo sapiens, MCF7, 48 h): > 100 µM; IC50 ([3]; Homo sapiens, HepG2, 48 h): > 100 µM; IC50 ([4]; Homo sapiens, HepG2, 48 h): > 100 µM; IC50 ([5]; Homo sapiens, PC-3, 48 h): > 100 µM; IC50 ([6]; Mus musculus, NIH3T3, 48 h): > 100 µM; IC50 ([7]; Homo sapiens, HT-29, 48 h): > 100 µM; IC50 ([8]; Homo sapiens, HT-29, 48 h): > 100 µM; IC50 ([9]; Homo sapiens, PC-3, 48 h): > 100 µM; IC50 ([10]; Homo sapiens, MCF7, 48 h): > 100 µM; IC50 ([11]; Mus musculus, NIH3T3, 48 h): > 100 µM
2 | COc1ccc(-c2nc(CCC(=O)O)oc2-c2ccc(OC)cc2)cc1 [HL2, 3-(4,5-bis(4-Methoxylphenyl)oxazol-2-yl)propanoic acid] | did not affect cell proliferation in any cancer cell line tested | > 100 µM | > 100 µM | > 100 µM | > 100 µM | > 100 µM | > 100 µM | > 100 µM | > 100 µM | > 100 µM | > 100 µM | – | – | – | – | – | – | – | – | – | –
3 | O=C(O)CCN1C(=O)NC(c2ccccc2)(c2ccccc2)C1=O [HL3, 3-(2,5-Dioxo-4,4-diphenylimidazolidin-1-yl)propanoic acid] | did not affect cell proliferation in any cancer cell line tested | > 100 µM | > 100 µM | > 100 µM | > 100 µM | > 100 µM | > 100 µM | > 100 µM | > 100 µM | > 100 µM | > 100 µM | – | – | – | – | – | – | – | – | – | –
4 | O=C(CCN1C(=O)NC(c2ccccc2)(c2ccccc2)C1=O)[O][Sn]([c]1ccccc1)([c]1ccccc1)[c]1ccccc1 [Ph3SnL3, (3-(2,5-Dioxo-4,4-diphenylimidazolidin-1-yl)propanoato)triphenyltin(IV)] | – | – | – | – | – | – | – | – | – | – | – | 0.219 ± 0.016 µM | 0.1 ± 0.03 µM | 0.255 ± 0.085 µM | 0.211 ± 0.042 µM | 1.82 ± 0.99 µM | 0.218 ± 0.015 µM | 0.471 ± 0.048 µM | 0.458 ± 0.029 µM | 0.131 ± 0.017 µM | fold higher activity compared to cisplatin against MCF-7 ([10]; Table 1 IC50 values, 48 h): up to 120 fold; IC50 [11, 23]: 2.09 ± 1.03 µM
5 | (3-(4,5-bis(4-Methoxylphenyl)oxazol-2-yl)propanoato)triphenyltin(IV) [Ph3SnL2] | – | – | – | – | – | – | – | – | – | – | – | 0.543 ± 0.026 µM | 0.223 ± 0.084 µM | 0.628 ± 0.165 µM | 0.575 ± 0.043 µM | 1.99 ± 1.12 µM | 0.453 ± 0.063 µM | 0.727 ± 0.018 µM | 0.785 ± 0.018 µM | 0.309 ± 0.059 µM | IC50 [11, 23]: 2.61 ± 0.52 µM
